For data set [1], the system named is Bemisia tabaci SUD-S strain (susceptible laboratory strain). The experiment in a line: Leaf-disc dip bioassay on adult whiteflies, susceptible reference strain (Example VII). Conditions: for mortality at 32 ppm / mortality at 512 ppm / mortality at 40 ppm / mortality at 100 ppm / mortality at 500 ppm: Bemisia tabaci, read-out: Mortality, S Strain (SUD-S); for mortality at 32 ppm / mortality at 512 ppm: 48 h; for mortality at 40 ppm / mortality at 100 ppm / mortality at 500 ppm: 72 h; for LC50, S strain (SUD-S): in vivo. The data set is classed as in vivo. How it is done:
(§1) The activity of commercial, neonicotinoid insecticides was also assessed and served as the basis for comparisons of relative efficacy on this insecticide-resistant whitefly strain.
(§2) The common name associated with the Q-biotype of B. tabaci is the sweetpotato whitefly. […] The SUD-S strain of B. tabaci was the reference strain used in these tests and is a laboratory strain that is fully susceptible to all insecticide groups.
(§3) Technical samples of Compounds 6 and 7 were initially dissolved in 90% acetone in distilled water (containing 0.01% Agral) to obtain 5000 ppm stock solutions. […] Commercial formulations of imidacloprid (Confidor, 200SL), thiamethoxam (Actara, 25WG) and acetamiprid (Mospilan, 20SP) were diluted using distilled water containing 0.01% Agral.
(§4) Adult B. tabaci were removed from rearing cages using a motorized aspirator and, after brief narcosis, 20-30 healthy female whiteflies were placed onto each treated leaf disc. Each unit was sealed with a close-fitting, ventilated lid. Once adults had recovered from narcosis, dishes were inverted so that the leaf disc was facing abaxial side down allowing the adult whiteflies to orient normally. All bioassays consisted of three replicates per concentration (including controls). Mortality was assessed at 48 hours after initiation of the test for the commercial standards and at 72 hours for Compounds 6 and 7.
(§5) Compounds 6, 7 and the commercial neonicotinoid insecticides imidacloprid, thiamethoxam and acetamiprid were tested in discriminating concentration bioassays against both whitefly strains. More extensive concentration-response bioassays against both whitefly strains were conducted for Compounds 6, 7 and imidacloprid. […] Resistance ratios were calculated using the following equation: […]

For data set [2], the system named is insecticide-resistant Q-biotype Bemisia tabaci strain CHLORAKA
The experiment in a line: Leaf-disc dip bioassay on adult whiteflies, neonicotinoid-resistant Q-biotype strain (Example VII). Conditions: for mortality at 32 ppm / mortality at 512 ppm / mortality at 40 ppm / mortality at 100 ppm / mortality at 500 ppm: Bemisia tabaci, read-out: Mortality, R Strain (CHLORAKA); for mortality at 32 ppm / mortality at 512 ppm: 48 h; for mortality at 40 ppm / mortality at 100 ppm / mortality at 500 ppm: 72 h; for Resistance Ratio: CHLORAKA (R) vs SUD-S (S) LC50; for LC50, R strain (CHLORAKA): in vivo. The data set is classed as in vivo. Here is the method: as §1, §2, §3, §4, §5

In data set [3] the test system is Bemisia tabaci SUD-S strain (susceptible laboratory strain). The experiment in a line: Leaf-disc dip bioassay on adult whiteflies, susceptible reference strain (Example VIII). Type of data set: in vivo. How it is done:
(§6) The insecticidal activity of Compound 7 on adults from an insecticide-resistant, B-biotype Bemisia tabaci strain was assessed. The activity of commercial, neonicotinoid insecticides was also assessed and served as the basis for comparisons of relative efficacy on this insecticide-resistant whitefly strain.
(§7) The common name associated with the B-biotype of B. tabaci is the silverleaf whitefly. The strain used in these tests, “GUA-MIX”, was collected from a variety of crops situated in the Zacapa Valley of Guatemala in January of 2004. […] The SUD-S strain of B. tabaci was the reference strain used in these tests and is a laboratory strain that is fully susceptible to all insecticide groups.
(§8) A technical sample of Compound 7 was initially dissolved in 90% acetone in distilled water (containing 0.01% Agral) to obtain a 5000 ppm stock solution. […] Commercial formulations of imidacloprid (Confidor, 200SL), thiamethoxam (Actara, 25WG) and acetamiprid (Mospilan, 20SP) were diluted using distilled water containing 0.01% Agral.
as §4, with “Compound” for “Compounds 6 and”
(§9) Compound 7 and the commercial neonicotinoid insecticides imidacloprid, thiamethoxam and acetamiprid were tested in discriminating concentration bioassays against both whitefly strains. More extensive concentration-response bioassays against both whitefly strains were conducted for Compound 7 and imidacloprid. […] Resistance ratios were calculated using the following equation: […]

For data set [4], the system named is insecticide-resistant B-biotype Bemisia tabaci strain GUA-MIX. The experiment in a line: Leaf-disc dip bioassay on adult whiteflies, neonicotinoid-resistant B-biotype strain (Example VIII). The data set is classed as in vivo. How it is done: as §6, §7, §8
as §4, with “Compound” for “Compounds 6 and”
as §9

Data set [5] relates to field-collected populations of the whitefly, Bemisia tabaci. The following applies: field-collected B. tabaci strains, late 1990s onward; literature; cited from earlier work.
The subject of data set [6] is Myzus persicae US1L strain (susceptible). The text has this: (§10) Activity was compared to that of commercial insecticides representing major insecticide classes.
(§11) The common name associated with Myzus persicae is the green peach aphid. […] The “US1L” strain of M. persicae was the reference strain used in these tests.
(§12) Subsequent dilutions used a 10% solution of acetone in distilled water (containing 0.01% Agral®) as the diluent.
(§13) For M. persicae bioassays, discs cut from fully expanded leaves of Chinese cabbage (Brassica rapa ssp. Pekinensis cv. Won Bok) plants were dipped into serial dilutions of insecticide, allowed to air-dry, and placed onto agar-water (1%) beds in plastic Petri-dishes. Leaf discs immersed in the diluent only were used for controls. Adults were removed from rearing boxes and, using a fine camel-hair paint brush, 10 healthy, apterous females were placed onto each treated leaf disc and each unit sealed with a close-fitting, ventilated lid. All bioassays consisted of three replicates per dose (including controls). Mortality was scored at 24, 48 and 72 h following initial exposure for all compounds and the 72 h data were used for all analyses.
(§14) Mortality data were subjected to probit analysis to derive LC50 and LC90 estimates. Resistance ratios were calculated using the following equation: […]

The test system of data set [7] is insecticide-resistant Myzus persicae strain 4013A. The experiment in a line: Leaf-disc dip bioassay on adult aphids, insecticide-resistant strain (Example IX). Conditions: for Resistance Ratio: 4013A (R) vs US1L (S) LC50.
Source text: as §10, §11, §12, §13, §14

Data set [8] relates to Bemisia tabaci SUD-S strain (susceptible laboratory strain). The experiment in a line: Leaf-disc dip bioassay on adult whiteflies, susceptible reference strain (Example IX). The data set is classed as in vivo.
Source text: as §2
as §4, with “2, 4,” for “6”, “5.” for “7.”
(§15) Resistance ratios were calculated using the following equation: […]

The test system of data set [9] is insecticide-resistant Q-biotype Bemisia tabaci strain CHLORAKA
The experiment in a line: Leaf-disc dip bioassay on adult whiteflies, insecticide-resistant Q-biotype strain (Example IX). Type of data set: in vivo. Conditions: for Resistance Ratio: CHLORAKA (R) vs SUD-S (S) LC50.
Source text: as §2
as §4, with “2, 4,” for “6”, “5.” for “7.”
as §15

Setting [10] is: Bemisia tabaci, 48 h, read-out: Mortality, S Strain (SUD-S).
Setting [11] is: Bemisia tabaci, 48 h, read-out: Mortality, R Strain (GUA-MIX).
Where [12] appears, read: Bemisia tabaci, 72 h, read-out: Mortality, S Strain (SUD-S).
Where [13] appears, read: Bemisia tabaci, 72 h, read-out: Mortality, R Strain (GUA-MIX).
Setting [14] is: probit analysis, 72 h mortality data.
Where [15] appears, read: probit analysis, mortality at 72 hours for Compounds 2, 4, 5, 48 hours for commercial standards.

Like-named read-outs stand apart in the source and are kept apart here. Marks after values point to notes of the source that are not given here.

For the molecule `C/C(=N\C#N)N(C)Cc1ccc(Cl)nc1` [Acetamiprid, acetamiprid], the mortality at 32 ppm in [1] was 52%; in [2], 2%; in data set [3] (setting [10]), 65%; in data set [4] (setting [11]) it was 1%. In addition, the mortality at 512 ppm in data set [1] came out at 79%; in [2], 30%; in data set [3] (setting [10]), 98%; in data set [4] (setting [11]), 63%. In [5], the “resistance of more recently-collected whitefly strains” value was “comparable levels of resistance”.

Turning to `C[C@@H](c1ccc(Cl)nc1)S(C)(=O)=NC#N` (single isomer, unassigned) [Compound 7], in [1], the mortality at 40 ppm stood at 98%; the mortality at 100 ppm was determined as 97%; the mortality at 500 ppm is 100%; the “LC50, S strain (SUD-S)” value is 9.0 ppm. Besides, in data set [2], the mortality at 40 ppm came to 37%, the mortality at 100 ppm is 79%, the mortality at 500 ppm amounted to 97% and the “Resistance Ratio” value worked out at 5.9. Also, in data set [2], the “LC50, R strain (CHLORAKA)” value worked out at 53 ppm. In addition, in data set [3] (setting [12]), the mortality at 40 ppm is 84% and the mortality at 100 ppm worked out at 95%. Also, in [3] (in vivo), the “LC50, S strain (SUD-S)” value came to 9.3 ppm. Moreover, in data set [4] (setting [13]), the mortality at 40 ppm is 70% and the mortality at 100 ppm was determined as 79%. In data set [4] (GUA-MIX (R) vs SUD-S (S) LC50), the “Resistance Ratio” value was found to be 3.3. In data set [4] (in vivo), the “LC50, R strain (GUA-MIX)” value stood at 30.3 ppm.

`Cc1nc(N(C)C)nc(OC(=O)N(C)C)c1C` [Pirimicarb, pirimicarb]: the “LC50, S strain (US1L)” value in data set [6] (setting [14]) is reported as 14.8 ppm. Also, the “Resistance Ratio” value in [7] is given as >60**^. In addition, in [7] (setting [14]), the “LC50, R strain (4013A)” value is >1000 ppm.

Take `CC(c1ccc(Cl)nc1)S(C)(=O)=NC#N` (centres unmarked) [Compound 5, [1-(6-Chloropyridin-3-yl)ethyl](methyl)oxido-λ^4-sulfanylidenecyanamide]: the “LC50, S strain (SUD-S)” value in [8] (in vivo) is on record as 4.5 ppm. Besides, the entries for the “Resistance Ratio” value in [9] and in data set [7] were 2.9 and 0.2, respectively. Moreover, in [9] (in vivo), the “LC50, R strain (CHLORAKA)” value amounted to 13.2 ppm. Moreover, the “LC50, S strain (US1L)” value in data set [6] (in vivo) is reported as 62.3 ppm. Besides, in [7] (setting [14]), the “LC50, R strain (4013A)” value stood at 12.5 ppm.

As to `CC1(C)[C@H](C(=O)O[C@H](C#N)c2cccc(Oc3ccccc3)c2)[C@@H]1C=C(Br)Br` [Deltamethrin, deltamethrin], the “LC50, S strain (SUD-S)” value in data set [8] (setting [15]) turned out to be 0.4 ppm. Further, the “Resistance Ratio” value in [9] is given as 815 ^; in data set [7], 60. Also, the “LC50, R strain (CHLORAKA)” value in [9] (setting [15]) is reported as 325 ppm. Besides, the “LC50, S strain (US1L)” value in [6] (setting [14]) stood at 1.5 ppm. Moreover, the “LC50, R strain (4013A)” value in [7] (in vivo) was found to be 92 ppm.

On to `CN1COCN(Cc2cnc(Cl)s2)/C1=N\[N+](=O)[O-]` [Thiamethoxam, thiamethoxam], for which, in data set [1], the mortality at 32 ppm worked out at 85% and the mortality at 512 ppm worked out at 94%. In [2], the mortality at 32 ppm is 0% and the mortality at 512 ppm is 15%. Moreover, in data set [3] (setting [10]), the mortality at 32 ppm was 57% and the mortality at 128 ppm amounted to 73%. Moreover, in [4] (setting [11]), the mortality at 25 ppm amounted to 10%, the mortality at 250 ppm worked out at 51% and the mortality at 2500 ppm is 87%. Besides, the “resistance of more recently-collected whitefly strains” value in data set [5] is on record as “comparable levels of resistance”.

Regarding `CS(=O)(Cc1ccc(Cl)nc1)=NC#N` (centres unmarked) [Compound 4, [(6-Chloropyridin-3-yl)methyl](methyl)oxido-λ^4-sulfanylidenecyanamide], the “LC50, S strain (SUD-S)” value in [8] (in vivo) is listed as 3.1 ppm. In addition, the figures for the “Resistance Ratio” value in data set [9] and in data set [7] were 5.2 and 0.7, respectively. Besides, in data set [9] (in vivo), the “LC50, R strain (CHLORAKA)” value was determined as 16.5 ppm. For the same molecule, the “LC50, S strain (US1L)” value in data set [6] (in vivo) worked out at 146 ppm. For the same molecule, the “LC50, R strain (4013A)” value in data set [7] (setting [14]) stood at 103 ppm.

Turning to `CC(c1ccc(C(F)(F)F)nc1)S(C)(=O)=NC#N` (centres unmarked) [Compound 2, [1-(6-Trifluoromethylpyridin-3-yl)ethyl](methyl)-oxido-λ^4-sulfanylidenecyanamide], the “LC50, S strain (SUD-S)” value in [8] (setting [15]) is on record as 1.8 ppm. In addition, the “Resistance Ratio” value is listed as 2.8 in data set [9] and 0.4 in data set [7]. Moreover, in data set [9] (setting [15]), the “LC50, R strain (CHLORAKA)” value was 5.0 ppm. Moreover, in data set [6] (setting [14]), the “LC50, S strain (US1L)” value is on record as 4.13 ppm. In addition, in data set [7] (setting [14]), the “LC50, R strain (4013A)” value came out at 1.52 ppm.

For the molecule `C[C@H](c1ccc(Cl)nc1)S(C)(=O)=NC#N` (single isomer, unassigned) [Compound 6], in data set [1], the mortality at 40 ppm was determined as 99%; the mortality at 100 ppm was found to be 100%; the mortality at 500 ppm was found to be 100%; the “LC50, S strain (SUD-S)” value is reported as 7.4 ppm. Also, in data set [2], the mortality at 40 ppm amounted to 39%, the mortality at 100 ppm stood at 79%, the mortality at 500 ppm came out at 96% and the “Resistance Ratio” value was found to be 6.1. Besides, in data set [2], the “LC50, R strain (CHLORAKA)” value is reported as 45 ppm.

Turning to `CCCSP(=O)(OCC)Oc1ccc(Br)cc1Cl` (centres unmarked) [Profenofos, profenofos], the “LC50, S strain (SUD-S)” value in data set [8] (setting [15]) was 2.0 ppm. For the same molecule, in data set [9], the “Resistance Ratio” value is listed as 189 ^. Moreover, in [9] (setting [15]), the “LC50, R strain (CHLORAKA)” value amounted to 374 ppm.

The record behind these values is US8912222B2, “Method to control insects resistant to common insecticides” (priority 2006, dated 2014).
